The values below come from US9549912B2, “Methods for treating atrial fibrillation” (Armetheon, Inc., priority 2009, dated 2017).

SMILES strings stand for the structures. Read-outs that look alike come from different tables or passages of the source.

The nature of series [1]: Electrophysiological activity in animals: atrial refractoriness, metabolite activity. Type of series: in vivo. Conditions: in vivo.
Series [2] addresses P-glycoprotein (P-gp) (Homo sapiens, UniProt P08183). As to conditions: cited from earlier work.
For series [3] the following is noted: cited from earlier work.
The subject of series [4] is AF patients. Conditions: followed for a year, versus placebo; cited from earlier work.
The conditions of series [5]: 2 years; 8 for the placebo; cited from earlier work.
Series [6] is described as follows: Phase 2 clinical trial of tecarfarin: time in therapeutic INR range versus warfarin. It counts as in vivo, human. Conditions: for proportion of time with INR below 1.5 / proportion of time with INR between 1.5 and 1.9: human, in vivo; for time in therapeutic range (TTR), INR between 2.0 and 3.0: same patient population, previously on warfarin.
Series [7] has as its system patients with AF. As to conditions: cited from earlier work.

Chain of P-glycoprotein (P-gp) (P08183 whole entry): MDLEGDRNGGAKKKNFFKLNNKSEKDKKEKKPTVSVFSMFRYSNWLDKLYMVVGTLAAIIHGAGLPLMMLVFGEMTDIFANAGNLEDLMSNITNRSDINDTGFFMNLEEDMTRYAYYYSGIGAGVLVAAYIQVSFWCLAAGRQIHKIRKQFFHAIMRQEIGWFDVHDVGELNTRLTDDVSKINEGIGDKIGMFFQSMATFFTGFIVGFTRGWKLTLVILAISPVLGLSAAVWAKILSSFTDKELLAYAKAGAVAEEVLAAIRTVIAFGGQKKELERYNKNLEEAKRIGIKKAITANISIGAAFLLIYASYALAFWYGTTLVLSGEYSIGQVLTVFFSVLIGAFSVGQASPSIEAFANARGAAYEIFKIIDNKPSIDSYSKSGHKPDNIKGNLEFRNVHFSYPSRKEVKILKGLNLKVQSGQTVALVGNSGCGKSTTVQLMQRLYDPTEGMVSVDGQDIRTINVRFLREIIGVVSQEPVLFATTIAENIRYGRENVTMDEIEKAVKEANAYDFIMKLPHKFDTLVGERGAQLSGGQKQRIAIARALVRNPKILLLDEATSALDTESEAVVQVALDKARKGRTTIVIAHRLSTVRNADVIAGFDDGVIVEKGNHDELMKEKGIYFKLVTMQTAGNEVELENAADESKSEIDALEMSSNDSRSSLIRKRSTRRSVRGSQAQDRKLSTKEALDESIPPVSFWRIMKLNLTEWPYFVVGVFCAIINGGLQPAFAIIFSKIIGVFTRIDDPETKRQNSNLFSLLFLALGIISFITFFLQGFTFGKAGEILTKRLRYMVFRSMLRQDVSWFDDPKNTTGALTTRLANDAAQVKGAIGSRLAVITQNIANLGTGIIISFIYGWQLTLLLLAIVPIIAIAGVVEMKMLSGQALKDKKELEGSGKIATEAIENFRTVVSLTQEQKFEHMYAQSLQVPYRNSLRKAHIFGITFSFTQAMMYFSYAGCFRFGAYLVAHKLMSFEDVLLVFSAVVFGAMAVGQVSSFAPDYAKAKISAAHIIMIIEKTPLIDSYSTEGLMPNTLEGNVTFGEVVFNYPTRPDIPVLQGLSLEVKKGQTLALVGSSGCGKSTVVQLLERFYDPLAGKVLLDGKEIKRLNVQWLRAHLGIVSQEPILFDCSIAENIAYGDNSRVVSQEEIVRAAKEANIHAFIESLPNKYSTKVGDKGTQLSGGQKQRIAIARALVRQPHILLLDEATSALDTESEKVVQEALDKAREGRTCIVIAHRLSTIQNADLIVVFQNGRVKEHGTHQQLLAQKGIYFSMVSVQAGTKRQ

Turning to `CCN(CC)CCOc1c(I)cc(C(=O)c2c(CC(=O)O)oc3ccccc23)cc1I` [ATI-2000], the electrophysiological activity result in series [1] is “electrophysiologically inactive”.

With `[H]/N=C(/N)c1ccc(NCc2nc3cc(C(=O)N(CCC(=O)O)c4ccccn4)ccc3n2C)cc1` [dabigatran], the P-gp substrate status result in series [2] is reported as “substrate”. For the same compound, the “major bleeding versus warfarin” value in series [3] (110 mg) was “superior”; in series [3] (150 mg), “noninferior”.

Take `CCCCc1oc2ccc(NS(C)(=O)=O)cc2c1C(=O)c1ccc(OCCCN(CCCC)CCCC)cc1` [dronedarone]: in series [4], the “time to first recurrence of AF (TTFR)” value is “significant increase in TTFR compared to placebo”. The “number of strokes in patients with only AF or atrial flutter on all ECGs” value in series [5] is reported as 2.

Take `C=C[C@H]1C[N@@]2CC[C@H]1C[C@@H]2[C@@H](O)c1ccnc2ccc(OC)cc12` [quinidine]: in series [2], the P-gp inhibition entry was “particularly potent P-gp inhibitor”.

`CC(OC(=O)c1ccc(Cc2c(O)c3ccccc3oc2=O)cc1)(C(F)(F)F)C(F)(F)F` [tecarfarin]: in series [6], the “proportion of time with INR below 1.5” value was 1.2%; the “proportion of time with INR between 1.5 and 1.9” value stood at 14.2%; the “time in therapeutic range (TTR), INR between 2.0 and 3.0” value is recorded as 71.5%.

Consider `CC(=O)CC(c1ccccc1)c1c(O)c2ccccc2oc1=O` (centres unmarked) [warfarin], for which, in series [6], the “proportion of time with INR below 1.5” value is listed as 3.9%; the “proportion of time with INR between 1.5 and 1.9” value came out at 22.4%; the “time in therapeutic range (TTR), INR between 2.0 and 3.0” value is 59.3%. In addition, the strokes prevented in series [7] is recorded as 64%.
